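All cell lines were grown in 96-well plates and treated with compound for 48 hours. At the TGI there is no net growth.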

These results are taken from PubChem BioAssay (NCI).

Among the test systems are ACHN renal; HCT-15 colon; SK-MEL-28 melanoma; UO-31 renal; T-47D breast; OVCAR-3 ovarian; NCI-H226 lung; IGROV1 ovarian; SR leukemia; HS 578T breast.
Common to all, as to experiment: NCI-60 cell line screen, 48 h

Turning to `CCCCN(CCCC)C(=C(C(Cl)=C(Cl)Cl)[N+](=O)[O-])N(CCCC)CCCC`, the TGI in the test with ACHN renal, in the test with HCT-15 colon, with SK-MEL-28 melanoma, in the test on UO-31 renal, in the test with T-47D breast and in the test with OVCAR-3 ovarian was greater than 100 µM each time. The same compound yielded a TGI in the test with NCI-H226 lung greater than 100 µM.
Regarding `C=C1C(=O)OC2/C=C(/C)C3(O)OC(C)(CC(OC(=O)C(C)C)C12)CC3OC(C)=O` (stereo not given), the TGI with IGROV1 ovarian is 36.6 µM; in the test on ACHN renal it was 8.67 µM; in the test with HCT-15 colon, 24.5 µM; with SK-MEL-28 melanoma, greater than 53 µM; in the test on SR leukemia, greater than 31.5 µM; in the test on UO-31 renal it was 22.2 µM. Besides, the TGI was greater than 100 µM in the test on T-47D breast, 29.8 µM with OVCAR-3 ovarian and greater than 87 µM in the test on NCI-H226 lung.
As for `Cc1ccc(S(=O)(=O)NC(=O)NNc2ccc(F)cc2)cc1`, the TGI is greater than 100 µM in the test on IGROV1 ovarian; greater than 100 µM with ACHN renal; greater than 100 µM in the test with HCT-15 colon; greater than 100 µM with SK-MEL-28 melanoma; greater than 31.6 µM with UO-31 renal; greater than 100 µM in the test on T-47D breast. For the same compound, the TGI with HS 578T breast, with OVCAR-3 ovarian and in the test on NCI-H226 lung was greater than 100 µM in each case.
Consider `O/C(=C\c1nc2ccccc2nc1NC12CC3CC(CC(C3)C1)C2)c1ccc(Br)cc1`, for which the TGI with IGROV1 ovarian, in the test on ACHN renal, in the test on HCT-15 colon, with SK-MEL-28 melanoma, in the test on UO-31 renal and in the test on T-47D breast was greater than 10 µM throughout. Besides, the TGI in the test with HS 578T breast, with OVCAR-3 ovarian and in the test on NCI-H226 lung was greater than 10 µM in each case.
With `O=C(O)CSC(NC(=O)C(C(F)(F)F)C(F)(F)F)(C(F)(F)F)C(F)(F)F`, the TGI in the test with IGROV1 ovarian, in the test on ACHN renal, in the test with HCT-15 colon, with SK-MEL-28 melanoma, in the test with SR leukemia and with UO-31 renal was greater than 100 µM in each case. Also, the TGI with T-47D breast and in the test with HS 578T breast was greater than 100 µM each time.
As to `CCCOC(=O)NC(C)C(=O)NC(CCC(=O)NC(CCCC(N)C(=O)O)C(=O)NC(C)C(=O)O)C(=O)O` (stereo not given), the TGI is greater than 100 µM with IGROV1 ovarian; greater than 100 µM in the test on ACHN renal; 34.6 µM in the test on HCT-15 colon; 44.9 µM with SK-MEL-28 melanoma; 32.4 µM in the test with SR leukemia; greater than 100 µM in the test on UO-31 renal. For the same compound, the TGI in the test with T-47D breast was 41.7 µM; in the test with HS 578T breast, 40.5 µM; in the test on OVCAR-3 ovarian, greater than 100 µM.
Regarding `CC1=CC(=O)CC2(C)CCC(C(C)CC(=O)CC(C)C)CC12` (stereo not given), the TGI in the test with IGROV1 ovarian is 72.5 µM; in the test with ACHN renal, 31.3 µM; with HCT-15 colon it was greater than 100 µM; in the test on SK-MEL-28 melanoma, 72.9 µM; with SR leukemia it was 41.6 µM; in the test on UO-31 renal it was greater than 100 µM. Also, the results for the TGI in the test on HS 578T breast and in the test on NCI-H226 lung were greater than 100 µM and 63.2 µM, respectively.
Turning to `c1ccc(-c2cnc(-c3ccc(-c4ncc(-c5ccccc5)o4)cc3)o2)cc1`, the TGI in the test on IGROV1 ovarian, in the test with ACHN renal, in the test with HCT-15 colon, in the test with SK-MEL-28 melanoma, in the test on UO-31 renal and in the test on T-47D breast was greater than 100 µM each time. In addition, the TGI with HS 578T breast, in the test with OVCAR-3 ovarian and with NCI-H226 lung was greater than 100 µM each time.
Turning to `OC1(c2ccc(Cl)cc2)c2ccc(CN3CCCC3)cc2C2=NCCN21` (stereo not given), the TGI was determined as 28.7 µM in the test with IGROV1 ovarian; 30.3 µM with ACHN renal; 32.9 µM with HCT-15 colon; 22.7 µM with SK-MEL-28 melanoma; 33.1 µM with SR leukemia; 27.5 µM in the test on UO-31 renal. The TGI in the test on T-47D breast was 38.5 µM; in the test with HS 578T breast, 26 µM; with OVCAR-3 ovarian, 31.7 µM.
With `Cc1ccc(-c2c(C#N)c(-c3ccc([N+](=O)[O-])cc3)c(C#N)c(=O)n2NS(=O)(=O)c2ccccc2)cc1`, the TGI is greater than 100 µM in the test on IGROV1 ovarian; greater than 100 µM with ACHN renal; greater than 100 µM with HCT-15 colon; greater than 100 µM in the test with SK-MEL-28 melanoma; 33.1 µM in the test with HS 578T breast; greater than 100 µM in the test on NCI-H226 lung.
With `CCCCC/C(C=O)=C\c1ccccc1`, the TGI in the test on IGROV1 ovarian, in the test with ACHN renal, in the test on HCT-15 colon, with SK-MEL-28 melanoma, with SR leukemia and in the test on UO-31 renal was greater than 100 µM each time. The TGI in the test with T-47D breast, with HS 578T breast and with NCI-H226 lung was greater than 100 µM throughout.
`CC/C(Cl)=N\OC(=O)Nc1ccc(F)c([N+](=O)[O-])c1`: the TGI is 33.8 µM in the test on IGROV1 ovarian; 4.78 µM with ACHN renal; 19.8 µM in the test with HCT-15 colon; 33.9 µM with SK-MEL-28 melanoma; greater than 68.6 µM in the test on SR leukemia; 14.2 µM with UO-31 renal. The TGI in the test on HS 578T breast is 31.7 µM; in the test on OVCAR-3 ovarian, 18.3 µM; with NCI-H226 lung it was greater than 100 µM.
For `Cc1cn2c(C)csc2c1P(=O)(OC(C)C)OC(C)C`, the TGI in the test on IGROV1 ovarian, in the test on ACHN renal, in the test with HCT-15 colon, in the test with SK-MEL-28 melanoma, with SR leukemia and in the test with UO-31 renal was greater than 100 µM each time. Moreover, the TGI in the test with HS 578T breast and in the test on OVCAR-3 ovarian was greater than 100 µM each time.
Consider `O=C(CCc1cccc(O)c1)NCCCNC(=O)CCc1cccc(O)c1`, for which the TGI in the test with IGROV1 ovarian, in the test with ACHN renal, with HCT-15 colon, in the test with SK-MEL-28 melanoma, in the test with SR leukemia and with UO-31 renal was greater than 100 µM each time. In addition, the TGI in the test on T-47D breast, in the test with HS 578T breast and in the test with OVCAR-3 ovarian was greater than 100 µM each time.
`COc1cc([C@@H]2c3cc4c(cc3[C@@H](c3c(O)cc(O)c5c3O[C@H](c3ccc(O)c(O)c3)[C@@H](O)C5)[C@H]3COC(=O)[C@H]23)OCO4)cc(OC)c1O`: the TGI in the test with IGROV1 ovarian, with ACHN renal, with HCT-15 colon, in the test on SK-MEL-28 melanoma, with T-47D breast and in the test with HS 578T breast was greater than 100 µM each time. In the test with OVCAR-3 ovarian, this compound had a TGI greater than 100 µM.
